Data: PMC11470957, “Principles of paralog-specific targeted protein degradation engaging the C-degron E3 KLHDC2” (Nature Communications, 2024)

Target: T1, KLHDC2^SBD (Homo sapiens, UniProt Q9Y2U9)
T1 sequence (Q9Y2U9 15-361): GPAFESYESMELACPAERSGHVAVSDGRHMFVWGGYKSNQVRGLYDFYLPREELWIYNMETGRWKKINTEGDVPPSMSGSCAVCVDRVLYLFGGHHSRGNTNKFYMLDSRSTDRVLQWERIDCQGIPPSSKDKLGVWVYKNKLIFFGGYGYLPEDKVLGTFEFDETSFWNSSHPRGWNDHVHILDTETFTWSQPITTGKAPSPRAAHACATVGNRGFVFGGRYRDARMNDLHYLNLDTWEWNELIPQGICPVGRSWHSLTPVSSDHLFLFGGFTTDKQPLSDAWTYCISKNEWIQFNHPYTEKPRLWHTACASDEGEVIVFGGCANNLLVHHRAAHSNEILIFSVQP
Test: Thermal shift assay (Sypro Orange) probing stabilization of KLHDC2^SBD
Format: binding
Design: KLHDC2^SBD (15-361) and its Avi-tagged counterpart were expressed in E. coli Rosetta2 cells; 6XHis-MBP (N, cleaved yes); made in house; host or cells: E. coli Rosetta2
Conditions: for ΔTm at 50 µM: read-out: ΔTm at 50 µM; for Thermal shift ΔTm: KLHDC2^SBD, ligand concentration not given
Experimental: In an attempt to identify non-peptide ligands that target KLHDC2’s substrate binding domain (SBD), we developed a thermal shift assay probing for stabilization of KLHDC2^SBD upon ligand addition. […] We utilized the thermal shift assay to screen ~ 9,000 molecules from a diverse collection of lead-like molecules (Figs. 1b, S1a, Supplementary Table 1).
Experimental compounds (200 nl each) were dispensed into a 384-well PCR plate using the Labcyte ECHO 655 T. The assay solution, comprising 0.5 μM KLHDC2, 25 mM HEPES, 200 mM NaCl, and 5% Sypro Orange at pH 7.5, was added to achieve a final volume of 20 μl. Negative control wells contained only DMSO, while positive control wells contained a di-Gly substrate peptide derived from SELK. Fluorescence measurements of Sypro Orange in each sample were taken using a Quantstudio 5 or Quantstudio 6, with temperatures ranging from 23 to 75 °C at a rate of 0.05 °C/s. Data analysis involved calculating thermal stability using the Boltzmann and first derivative minima equations in Thermo Scientific Protein Thermal Shift software v1.4. The resulting data were uploaded to CDD Vault for further analysis.
The 8892-compound lead-like one library was screened for its ability to stabilize KLHDC2 using a sypro orange-based thermal stability single-point assay.
Supplementary Ta b l e 1. Small molecule screening data
Category Parameter Description
Assay Ty p e o f assay Thermal Stability Screen
Primary measurement RFU of Sypro Orange
Key reagents Sypro Orange
Assay protocol Experimental compounds (200nl each) were dispensed into […]
a 384-well PCR plate using the Labcyte ECHO 655T. The […]
assay solution, comprising 0.5µM KLHDC2, 25mM HEPES,
200mM NaCl, and 5% Sypro Orange at pH 7.5, was added […]
to achieve a final volume of 20μl. Negative control wells […]
contained only DMSO, while positive control wells […]
contained peptide sub2. Fluorescence measurements of
Sypro Orange in each sample were taken using a
Quantstudio 5 or Quantstudio 6, with temperatures ranging […]
from 23 to 75°C at a rate of 0.05°C/second. Data analysis […]
involved calculating thermal stability using the Boltzmann […]
and first derivative minima equations in Thermo Scientific
Protein Thermal Shift software v1.4. The resulting data […]
were uploaded to CDD Vault for further analysis.
Library Library size 10041
Library composition The library was curated from compounds cherry picked […]
from St. Jude’s collection, representative of 80% of the […]
entire collection based on scaffold diversity (2D Molecular […]
fingerprinting based clustering) and structural properties: […]
lipophilicity (cLogP<3), size (MW 200-300 Da), and no […]
structural alerts (PAINS).
Source The compound collection was curated from multiple […]
vendors and stored on-site.
Screen Format The assay was completed in 26 384 well plates
Concentration(s) tested Compounds were tested at 100µM, and then a 16-point […]
serial dilution was performed on select compounds.
Plate controls DMSO as negative control and peptide sub2 as positive […]
Reagent/ compound dispensing system Multidrop Combi and Labcyte ECHO 655T […]
Detection instrument and software Quant Studio 5 and Quant Studio 6 and Thermo Scientific […]
Protein Thermal Shift software v1.4
Correction factors No correction factors were applied.

| Thermal shift ΔTm | Structure (SMILES) | ΔTm at 50 µM |
| --- | --- | --- |
| – | O=C(O)CNC(=O)Cc1csc(-c2ccccc2F)n1 [SJ6145] | 1.1 ± 0.03 °C |
| – | COCOc1ccc(-c2nc(CC(=O)NCC(=O)O)cs2)c(Cl)c1 [SJ10278] | 3.5 ± 0.3 °C |
| 6.0 °C | O=C(O)CNC(=O)Cc1csc(-c2ccc3ccccc3c2)n1 [SJ46411] | – |
| 4.3 °C | COCCOc1cccc2ccc(-c3nc(CC(=O)NCC(=O)O)cs3)cc12 [SJ46418] | – |
